From patent publication US7312358B2, “Pharmaceutically active sulfanilide derivatives” (Laboratoires Serono SA, priority 2000, dated 2007)

Legend:
[1] = biological target: T1, hOT receptor (Homo sapiens, UniProt P30559); assay: In vitro competition binding assay on hOT receptor with scintillating proximity assay; conditions: membranes from HEK293EBNA cells expressing hOT receptor; radiolabel [125I]-OVTA; SPA; read-out: Binding Affinity Human OT-R Ki
T1 construct: expressed in transfected cells; host or cells: HEK293EBNA cells (membranes)
T1 sequence (P30559 1-389): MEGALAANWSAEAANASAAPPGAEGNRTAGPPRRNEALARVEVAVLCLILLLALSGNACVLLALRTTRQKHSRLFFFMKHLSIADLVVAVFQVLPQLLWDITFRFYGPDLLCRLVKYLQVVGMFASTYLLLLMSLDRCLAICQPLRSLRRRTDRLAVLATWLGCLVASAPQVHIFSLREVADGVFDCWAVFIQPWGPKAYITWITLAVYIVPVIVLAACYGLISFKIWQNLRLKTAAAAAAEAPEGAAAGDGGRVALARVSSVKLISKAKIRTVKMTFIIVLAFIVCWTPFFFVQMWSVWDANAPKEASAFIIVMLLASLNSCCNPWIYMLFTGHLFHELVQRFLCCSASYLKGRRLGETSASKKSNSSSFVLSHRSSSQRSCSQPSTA
In short: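 SPA competition binding using HEK293EBNA membranes expressing hOT receptor (2-4 μg) with WGA beads and 0.2 nM [125I]-OVTA in 50 mM Tris-HCl pH 7.4, 5 mM MgCl2, 0.1% BSA, 30 min at room temperature. Non-specific binding with 1 μM oxytocin; compounds at 10 pM–30 μM; IC50 by nonlinear curve fitting.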

[2] = test system: oxytocin-induced uterine contractions in the rat; assay: In vivo model for inhibition of uterine contractions; conditions: anaesthetised DES-treated non-pregnant female rat, route not given
Method: f) In Vivo Model for Inhibition of Uterine Contractions
The assay intends to show the biological effect of tested compounds in an in vivo model of preterm labor, premature birth.
Non-pregnant Charles River CD(SD) BR female rats (9-10 weeks old, 200-250 g) were treated at 18 and 24 hours before the experiment with 250 μg/kg, i.p. diethylstilbestrol (DES). For the assay, the animal was anaesthetised by urethane (1.75 g/kg, i.p.) and placed on an homeothennic operating table. The trachea was isolated and cannulated with a suitable polyethylene (PE) tubing. A midline incision at the hypogastrium level was made and one uterine horn exposed, its cephalic end cannulated with a PE240 tubing and, after filling the internal cavity with 0.2 ml of sterile physiological saline, connected to a “Gemini” amplifying/recording system via a P231D Gould Statham pressure transducer. For the i.v. route of administration of the test compounds, one jugular vein was isolated and cannulated with a PE60 tubing connected to a butterfly needle to allow the administration by a dispensing syringe. In the case of intraduodenal administration of the test compounds, the duodenum was isolated and similarly cannulated through a small incision in its wall. One carotid artery was also isolated and cannulated with PE60 catheter and connected to a suitable syringe for blood sample collection (see below). After a stabilization period, the same dose of oxytocin was repeatedly injected intravenously at 30-min intervals. […] Further injections of the same dose of oxytocin were then made for a suitable time after treatment to assess inhibitory effects of the compounds under study. The contractile response of the uterus to oxytocin was quantified by measuring the intra-uterine pressure and the number of contractions. The effect of the reference and test compounds were evaluated by comparing pre- and post-treatment pressure values. In addition, at 2, 30, 90 and 210 minutes after test compound administration, a 0.5-ml blood sample was withdrawn from the cannulated carotid artery of each experimental animal. Plasma was obtained by standard laboratory procedure and the resulting samples were stored at −20° C.
The activities of the sulfanilide derivatives claimed in the Formula I were assessed using the above described in vivo biological assay. The values refer to the capacity of the example compound according to Formula I to effectively antagonize oxytocin-induced uterine contractions in the rat.

For CCOc1ccc(S(=O)(=O)N(CC(=O)N/N=C2/C(=O)Nc3ccccc32)c2ccc(C)cc2)cc1 [Example 5, 4-ethoxy-N-(4-methylphenyl)-N-{2-oxo-2-[2-(2-oxo-1,2-dihydro-3H-indol-3-ylidene)hydrazino]ethyl}benzenesulfonamide], the Ki [1] was 17.3 nM, the “% Reduction of Uterine Contraction” value ([2]; dose 5 mg/kg) was 23.9 ± 4.0% and the “% Reduction of Uterine Contraction” value ([2]; dose 7.5 mg/kg) was 40.3 ± 4.2%. The “% Reduction of Uterine Contraction” value ([2]; dose 10 mg/kg) was 62.6 ± 5.0%.
